# Active and inactive are the calls of the source. No cut-off for these calls is given here.
# Molecular target: Cholinesterase (Equus caballus) (UniProt P81908)
# Test: Inhibition of equine BChE at 30 uM using butyrylthiocholine iodide as substrate measured from 0.5 to 1.5 mins by spectrophotometry based Ellman's method relative to control
# Conditions: not given
# Chain of Cholinesterase (Equus caballus) (P81908 whole entry): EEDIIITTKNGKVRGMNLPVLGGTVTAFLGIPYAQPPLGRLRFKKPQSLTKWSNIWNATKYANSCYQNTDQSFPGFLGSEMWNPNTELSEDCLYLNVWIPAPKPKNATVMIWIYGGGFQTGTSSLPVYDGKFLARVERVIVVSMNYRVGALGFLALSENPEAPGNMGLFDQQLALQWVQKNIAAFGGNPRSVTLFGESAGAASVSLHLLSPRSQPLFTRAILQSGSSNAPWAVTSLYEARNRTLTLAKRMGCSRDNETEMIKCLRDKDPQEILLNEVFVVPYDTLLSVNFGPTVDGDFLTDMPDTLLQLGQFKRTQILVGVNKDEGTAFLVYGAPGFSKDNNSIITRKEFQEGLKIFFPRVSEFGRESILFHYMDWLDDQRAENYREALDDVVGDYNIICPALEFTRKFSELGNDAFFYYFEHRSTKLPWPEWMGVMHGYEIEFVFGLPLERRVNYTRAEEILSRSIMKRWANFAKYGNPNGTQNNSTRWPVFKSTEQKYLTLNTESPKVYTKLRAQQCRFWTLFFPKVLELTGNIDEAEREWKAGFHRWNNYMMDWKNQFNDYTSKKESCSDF
row,SMILES,inhibition
1,O=C(Nc1cc(Cl)nc(Cl)c1)OCCCCCNCc1ccccc1,95%
2,O=C(Nc1cc(Cl)nc(Cl)c1)OCCCCCCNCc1ccccc1,89%

# System: HeLa
# Test: Cytotoxicity against human HeLa cells assessed as effect on cell viability up to 10 uM after 24 hrs by MTT assay
# Assay type: cell-based
# Conditions: not given
row,SMILES,Activity
1,O=C(Nc1cc(Cl)nc(Cl)c1)OCCCCCNCc1ccccc1,Non-Toxic

# System: HeLa
# Test: Cytotoxicity against human HeLa cells after 24 hrs by MTT assay
# Assay type: cell-based
# Conditions: not given
row,SMILES,IC50
1,O=C(Nc1cc(Cl)nc(Cl)c1)OCCCCCNCc1c[nH]c2ccccc12,6.7 µM
2,O=C(Nc1cc(Cl)nc(Cl)c1)OCCCCCNCc1ccccc1,20.8 µM
3,O=C(Nc1cc(Cl)nc(Cl)c1)OCCCCCCNCc1ccccc1,12.5 µM

# System: not listed separately
# Test: Cytotoxicity against human T67 cells after 24 hrs by MTT assay
# Assay type: cell-based
# Conditions: T67, 24 h
row,SMILES,IC50
1,O=C(Nc1cc(Cl)nc(Cl)c1)OCCCCCNCc1c[nH]c2ccccc12,5.8 µM
2,O=C(Nc1cc(Cl)nc(Cl)c1)OCCCCCNCc1ccccc1,24.1 µM
3,O=C(Nc1cc(Cl)nc(Cl)c1)OCCCCCCNCc1ccccc1,13.2 µM

# Molecular target: T1, Acetylcholinesterase (Homo sapiens, UniProt P22303)
# T1 sequence (P22303 whole entry): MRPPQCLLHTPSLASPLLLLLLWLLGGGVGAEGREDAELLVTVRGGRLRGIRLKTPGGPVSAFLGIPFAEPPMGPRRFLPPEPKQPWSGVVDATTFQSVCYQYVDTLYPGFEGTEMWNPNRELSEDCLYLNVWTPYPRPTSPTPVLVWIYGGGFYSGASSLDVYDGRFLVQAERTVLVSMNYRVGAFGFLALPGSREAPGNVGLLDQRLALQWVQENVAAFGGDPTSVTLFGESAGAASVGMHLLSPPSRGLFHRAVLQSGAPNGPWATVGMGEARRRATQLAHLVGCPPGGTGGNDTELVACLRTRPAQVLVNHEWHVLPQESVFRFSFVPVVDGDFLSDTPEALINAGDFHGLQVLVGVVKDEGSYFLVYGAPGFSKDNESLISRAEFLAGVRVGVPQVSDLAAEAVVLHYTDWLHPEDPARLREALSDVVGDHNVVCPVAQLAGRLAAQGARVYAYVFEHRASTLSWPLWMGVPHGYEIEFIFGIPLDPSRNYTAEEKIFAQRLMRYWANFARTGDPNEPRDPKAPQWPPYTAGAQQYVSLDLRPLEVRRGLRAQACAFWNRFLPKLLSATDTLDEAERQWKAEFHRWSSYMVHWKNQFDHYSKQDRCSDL
# Test: Inhibition of human serum AChE at 25 uM using acetylthiocholine iodide as substrate preincubated for 20 mins followed by substrate addition measured for 3 mins by Ellman's method
# Conditions: not given
row,SMILES,inhibition
1,O=C(Nc1cc(Cl)nc(Cl)c1)OCCCCCNCc1ccc(Oc2ccccc2)cc1,< 20%
2,O=C(NCCCCCCNCc1ccc(Oc2ccccc2)cc1)c1cc(Cl)nc(Cl)c1,< 20%

# Molecular target: Acetylcholinesterase (Electrophorus electricus) (UniProt O42275)
# Sequence (O42275 24-633 limits assumed): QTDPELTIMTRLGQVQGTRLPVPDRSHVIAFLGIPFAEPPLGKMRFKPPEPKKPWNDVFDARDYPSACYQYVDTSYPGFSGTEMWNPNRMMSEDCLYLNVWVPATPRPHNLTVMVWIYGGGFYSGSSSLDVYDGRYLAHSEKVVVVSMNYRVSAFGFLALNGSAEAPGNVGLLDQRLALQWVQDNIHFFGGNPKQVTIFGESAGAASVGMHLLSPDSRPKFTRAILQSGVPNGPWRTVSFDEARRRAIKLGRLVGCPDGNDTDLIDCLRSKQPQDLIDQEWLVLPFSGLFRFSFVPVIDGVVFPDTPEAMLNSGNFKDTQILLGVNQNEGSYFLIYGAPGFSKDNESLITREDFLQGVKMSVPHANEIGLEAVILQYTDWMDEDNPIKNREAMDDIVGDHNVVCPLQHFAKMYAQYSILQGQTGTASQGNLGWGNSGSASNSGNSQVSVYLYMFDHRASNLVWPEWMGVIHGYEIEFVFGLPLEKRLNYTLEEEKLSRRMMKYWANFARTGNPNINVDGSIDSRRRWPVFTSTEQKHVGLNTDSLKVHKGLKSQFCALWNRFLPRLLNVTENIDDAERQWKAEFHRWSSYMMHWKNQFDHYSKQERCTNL
# Test: Time-dependent inhibition of electric eel AChE at 300 nM using acetylthiocholine iodide as substrate
# Conditions: not given
row,SMILES,TDI
1,O=C(Nc1cc(Cl)nc(Cl)c1)OCCCCCNCc1c[nH]c2ccccc12,inactive
2,COc1ccccc1CNCCCCCOC(=O)Nc1cc(Cl)nc(Cl)c1,inactive
3,O=C(Nc1ccncc1Br)OCCCCCNCc1ccccc1,inactive
4,O=C(Nc1cc(Cl)nc(Cl)c1)OCCCCCNCc1ccc(Oc2ccccc2)cc1,inactive
5,O=C(Nc1cc(Cl)nc(Cl)c1)OCCCCCNCc1ccccc1,inactive
6,O=C(Nc1cc(Cl)nc(Cl)c1)OCCCCCCNCc1ccccc1,inactive

# System: HeLa
# Test: Cytotoxicity against human HeLa cells assessed as cell mortality at 10 uM after 24 hrs by MTT assay
# Assay type: cell-based
# Conditions: not given
row,SMILES,Activity
1,O=C(Nc1cc(Cl)nc(Cl)c1)OCCCCCNCc1c[nH]c2ccccc12,50%
2,O=C(Nc1cc(Cl)nc(Cl)c1)OCCCCCCNCc1ccccc1,25%

# Molecular target: Acetylcholinesterase (Electrophorus electricus) (UniProt O42275)
# Test: Inhibition of electric eel AChE at 3.0 uM using acetylthiocholine iodide as substrate measured from 0.5 to 1.5 mins by spectrophotometry-based Ellman's method relative to control
# Conditions: not given
row,SMILES,inhibition
1,O=C(Nc1cc(Cl)nc(Cl)c1)OCCCCCNCc1c[nH]c2ccccc12,97%
2,O=C(NCCCCCCNCc1ccccc1)c1cc(Cl)nc(Cl)c1,95%
3,COc1ccccc1CNCCCCCOC(=O)Nc1cc(Cl)nc(Cl)c1,89%
4,O=C(NCCCCCCNCc1ccc2ccccc2c1)c1cc(Cl)nc(Cl)c1,15%
5,COc1ccccc1CNCCCCCCNC(=O)c1cc(Cl)nc(Cl)c1,90%
6,O=C(Nc1ccncc1Br)OCCCCCNCc1ccccc1,90%
7,O=C(NCCCCCCNCc1c[nH]c2ccccc12)c1cc(Cl)nc(Cl)c1,92%
8,O=C(Nc1cc(Cl)nc(Cl)c1)OCCCCCNCc1ccc(Oc2ccccc2)cc1,24%
9,O=C(Nc1cc(Cl)nc(Cl)c1)OCCCCCNCc1ccccc1,99%
10,O=C(NCCCCCCNCc1ccc(Oc2ccccc2)cc1)c1cc(Cl)nc(Cl)c1,16%
11,O=C(Nc1cc(Cl)nc(Cl)c1)OCCCCCCNCc1ccccc1,91%

# System: not listed separately
# Test: Cytotoxicity against human T67 cells assessed as cell mortality at 10 uM after 24 hrs by MTT assay
# Assay type: cell-based
# Conditions: not given
row,SMILES,Activity
1,O=C(Nc1cc(Cl)nc(Cl)c1)OCCCCCNCc1c[nH]c2ccccc12,50%
2,O=C(Nc1cc(Cl)nc(Cl)c1)OCCCCCCNCc1ccccc1,25%

# Molecular target: T1, Acetylcholinesterase
# Test: Inhibition of human serum AChE using acetylthiocholine iodide as substrate preincubated for 20 mins followed by substrate addition measured for 3 mins by Ellman's method
# Conditions: not given
row,SMILES,IC50
1,O=C(Nc1cc(Cl)nc(Cl)c1)OCCCCCNCc1c[nH]c2ccccc12,0.648 µM
2,O=C(NCCCCCCNCc1ccccc1)c1cc(Cl)nc(Cl)c1,3.17 µM
3,COc1ccccc1CNCCCCCOC(=O)Nc1cc(Cl)nc(Cl)c1,6.16 µM
4,O=C(NCCCCCCNCc1ccc2ccccc2c1)c1cc(Cl)nc(Cl)c1,99.7 µM
5,COc1ccccc1CNCCCCCCNC(=O)c1cc(Cl)nc(Cl)c1,8.3 µM
6,O=C(Nc1ccncc1Br)OCCCCCNCc1ccccc1,4.04 µM
7,O=C(NCCCCCCNCc1c[nH]c2ccccc12)c1cc(Cl)nc(Cl)c1,8.85 µM
8,O=C(Nc1cc(Cl)nc(Cl)c1)OCCCCCNCc1ccccc1,0.153 µM
9,O=C(Nc1cc(Cl)nc(Cl)c1)OCCCCCCNCc1ccccc1,0.759 µM

# Molecular target: T2, Cholinesterase (Homo sapiens, UniProt P06276)
# T2 sequence (P06276 whole entry): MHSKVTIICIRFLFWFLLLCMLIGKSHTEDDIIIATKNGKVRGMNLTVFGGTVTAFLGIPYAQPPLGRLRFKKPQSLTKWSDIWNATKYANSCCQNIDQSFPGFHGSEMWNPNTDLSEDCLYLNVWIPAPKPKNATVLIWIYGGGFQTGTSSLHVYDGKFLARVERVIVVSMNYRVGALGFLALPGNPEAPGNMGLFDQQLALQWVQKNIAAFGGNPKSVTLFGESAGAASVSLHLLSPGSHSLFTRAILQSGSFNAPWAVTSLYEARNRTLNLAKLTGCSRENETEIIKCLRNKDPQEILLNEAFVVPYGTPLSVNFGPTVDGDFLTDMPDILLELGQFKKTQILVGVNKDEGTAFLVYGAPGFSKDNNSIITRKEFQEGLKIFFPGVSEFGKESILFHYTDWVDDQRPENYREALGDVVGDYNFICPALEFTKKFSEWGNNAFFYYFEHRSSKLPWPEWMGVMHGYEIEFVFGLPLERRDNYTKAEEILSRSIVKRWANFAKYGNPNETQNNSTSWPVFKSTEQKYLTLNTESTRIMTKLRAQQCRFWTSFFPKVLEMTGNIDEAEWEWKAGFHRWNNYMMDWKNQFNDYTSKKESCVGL
# Test: Inhibition of human serum BChE at 25 uM using butyrylthiocholine iodide as substrate preincubated for 20 mins followed by substrate addition measured for 3 mins by Ellman's method
# Conditions: not given
row,SMILES,inhibition
1,O=C(NCCCCCCNCc1ccc(Oc2ccccc2)cc1)c1cc(Cl)nc(Cl)c1,< 20%

# System: not listed separately
# Test: Cytotoxicity against human T67 cells assessed as effect on cell viability up to 10 uM after 24 hrs by MTT assay
# Assay type: cell-based
# Conditions: not given
row,SMILES,Activity
1,O=C(Nc1cc(Cl)nc(Cl)c1)OCCCCCNCc1ccccc1,Non-Toxic

# Molecular target: Cholinesterase (Equus caballus) (UniProt P81908)
# Test: Inhibition of equine BChE at 0.3 uM using butyrylthiocholine iodide as substrate measured from 0.5 to 1.5 mins by spectrophotometry based Ellman's method relative to control
# Conditions: not given
row,SMILES,inhibition
1,O=C(Nc1cc(Cl)nc(Cl)c1)OCCCCCNCc1c[nH]c2ccccc12,8%
2,O=C(NCCCCCCNCc1ccccc1)c1cc(Cl)nc(Cl)c1,17%
3,COc1ccccc1CNCCCCCOC(=O)Nc1cc(Cl)nc(Cl)c1,< 5%
4,COc1ccccc1CNCCCCCCNC(=O)c1cc(Cl)nc(Cl)c1,6%
5,O=C(Nc1ccncc1Br)OCCCCCNCc1ccccc1,< 5%
6,O=C(NCCCCCCNCc1c[nH]c2ccccc12)c1cc(Cl)nc(Cl)c1,13%
7,O=C(Nc1cc(Cl)nc(Cl)c1)OCCCCCNCc1ccccc1,17%
8,O=C(Nc1cc(Cl)nc(Cl)c1)OCCCCCCNCc1ccccc1,12%

# Molecular target: Acetylcholinesterase (Electrophorus electricus) (UniProt O42275)
# Test: Inhibition of electric eel AChE at 0.3 uM using acetylthiocholine iodide as substrate measured from 0.5 to 1.5 mins by spectrophotometry-based Ellman's method relative to control
# Conditions: not given
row,SMILES,inhibition
1,O=C(Nc1cc(Cl)nc(Cl)c1)OCCCCCNCc1c[nH]c2ccccc12,76%
2,O=C(NCCCCCCNCc1ccccc1)c1cc(Cl)nc(Cl)c1,71%
3,COc1ccccc1CNCCCCCOC(=O)Nc1cc(Cl)nc(Cl)c1,50%
4,O=C(NCCCCCCNCc1ccc2ccccc2c1)c1cc(Cl)nc(Cl)c1,inactive
5,COc1ccccc1CNCCCCCCNC(=O)c1cc(Cl)nc(Cl)c1,49%
6,O=C(Nc1ccncc1Br)OCCCCCNCc1ccccc1,55%
7,O=C(NCCCCCCNCc1c[nH]c2ccccc12)c1cc(Cl)nc(Cl)c1,55%
8,O=C(Nc1cc(Cl)nc(Cl)c1)OCCCCCNCc1ccc(Oc2ccccc2)cc1,< 5%
9,O=C(Nc1cc(Cl)nc(Cl)c1)OCCCCCNCc1ccccc1,91%
10,O=C(NCCCCCCNCc1ccc(Oc2ccccc2)cc1)c1cc(Cl)nc(Cl)c1,inactive
11,O=C(Nc1cc(Cl)nc(Cl)c1)OCCCCCCNCc1ccccc1,72%

# Molecular target: T2, Cholinesterase
# Test: Inhibition of human serum BChE using butyrylthiocholine iodide as substrate preincubated for 20 mins followed by substrate addition measured for 3 mins by Ellman's method
# Conditions: not given
row,SMILES,IC50
1,O=C(Nc1cc(Cl)nc(Cl)c1)OCCCCCNCc1c[nH]c2ccccc12,0.828 µM
2,O=C(NCCCCCCNCc1ccccc1)c1cc(Cl)nc(Cl)c1,25.8 µM
3,COc1ccccc1CNCCCCCOC(=O)Nc1cc(Cl)nc(Cl)c1,4.02 µM
4,O=C(NCCCCCCNCc1ccc2ccccc2c1)c1cc(Cl)nc(Cl)c1,9.96 µM
5,COc1ccccc1CNCCCCCCNC(=O)c1cc(Cl)nc(Cl)c1,45.5 µM
6,O=C(Nc1ccncc1Br)OCCCCCNCc1ccccc1,5.27 µM
7,O=C(NCCCCCCNCc1c[nH]c2ccccc12)c1cc(Cl)nc(Cl)c1,4.7 µM
8,O=C(Nc1cc(Cl)nc(Cl)c1)OCCCCCNCc1ccc(Oc2ccccc2)cc1,8.41 µM
9,O=C(Nc1cc(Cl)nc(Cl)c1)OCCCCCNCc1ccccc1,4.59 µM
10,O=C(Nc1cc(Cl)nc(Cl)c1)OCCCCCCNCc1ccccc1,4.01 µM

# Molecular target: Acetylcholinesterase (Electrophorus electricus) (UniProt O42275)
# Test: Inhibition of electric eel AChE at 0.03 uM using acetylthiocholine iodide as substrate measured from 0.5 to 1.5 mins by spectrophotometry-based Ellman's method relative to control
# Conditions: not given
row,SMILES,inhibition
1,O=C(Nc1cc(Cl)nc(Cl)c1)OCCCCCNCc1c[nH]c2ccccc12,24%
2,O=C(NCCCCCCNCc1ccccc1)c1cc(Cl)nc(Cl)c1,18%
3,COc1ccccc1CNCCCCCOC(=O)Nc1cc(Cl)nc(Cl)c1,10%
4,COc1ccccc1CNCCCCCCNC(=O)c1cc(Cl)nc(Cl)c1,14%
5,O=C(Nc1ccncc1Br)OCCCCCNCc1ccccc1,20%
6,O=C(NCCCCCCNCc1c[nH]c2ccccc12)c1cc(Cl)nc(Cl)c1,15%
7,O=C(Nc1cc(Cl)nc(Cl)c1)OCCCCCNCc1ccccc1,65%
8,O=C(Nc1cc(Cl)nc(Cl)c1)OCCCCCCNCc1ccccc1,33%

# Molecular target: Acetylcholinesterase (Electrophorus electricus, UniProt O42275)
# Sequence (O42275 whole entry): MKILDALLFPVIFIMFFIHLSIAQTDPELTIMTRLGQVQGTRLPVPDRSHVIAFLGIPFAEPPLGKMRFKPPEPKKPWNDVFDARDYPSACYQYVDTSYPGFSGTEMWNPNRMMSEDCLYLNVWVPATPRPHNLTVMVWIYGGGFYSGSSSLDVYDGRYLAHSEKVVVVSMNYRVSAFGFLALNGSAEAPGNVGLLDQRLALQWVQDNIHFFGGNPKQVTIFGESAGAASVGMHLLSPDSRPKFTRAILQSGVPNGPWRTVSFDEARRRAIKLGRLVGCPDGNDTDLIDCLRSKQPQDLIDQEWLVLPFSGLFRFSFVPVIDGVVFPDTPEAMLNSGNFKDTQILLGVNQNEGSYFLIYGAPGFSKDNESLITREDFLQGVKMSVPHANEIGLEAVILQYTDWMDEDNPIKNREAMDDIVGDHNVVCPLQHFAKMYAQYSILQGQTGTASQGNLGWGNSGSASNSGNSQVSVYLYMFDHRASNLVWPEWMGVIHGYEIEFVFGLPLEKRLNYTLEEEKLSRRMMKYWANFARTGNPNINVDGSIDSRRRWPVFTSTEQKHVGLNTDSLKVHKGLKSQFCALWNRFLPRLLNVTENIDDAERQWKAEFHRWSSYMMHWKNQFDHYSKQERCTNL
# Test: Mixed inhibition of electric eel AChE using acetylthiocholine iodide as substrate measured from 0.5 to 1.5 mins by Dixon plot analysis
# Conditions: not given
row,SMILES,Ki
1,O=C(Nc1cc(Cl)nc(Cl)c1)OCCCCCNCc1c[nH]c2ccccc12,0.157 µM
2,O=C(NCCCCCCNCc1ccccc1)c1cc(Cl)nc(Cl)c1,0.0528 µM
3,COc1ccccc1CNCCCCCOC(=O)Nc1cc(Cl)nc(Cl)c1,0.288 µM
4,COc1ccccc1CNCCCCCCNC(=O)c1cc(Cl)nc(Cl)c1,0.355 µM
5,O=C(Nc1ccncc1Br)OCCCCCNCc1ccccc1,0.404 µM
6,O=C(NCCCCCCNCc1c[nH]c2ccccc12)c1cc(Cl)nc(Cl)c1,0.205 µM
7,O=C(Nc1cc(Cl)nc(Cl)c1)OCCCCCNCc1ccccc1,0.0386 µM
8,O=C(Nc1cc(Cl)nc(Cl)c1)OCCCCCCNCc1ccccc1,0.259 µM

# Molecular target: Cholinesterase (Equus caballus) (UniProt P81908)
# Test: Inhibition of equine BChE at 3.0 uM using butyrylthiocholine iodide as substrate measured from 0.5 to 1.5 mins by spectrophotometry based Ellman's method relative to control
# Conditions: not given
row,SMILES,inhibition
1,O=C(Nc1cc(Cl)nc(Cl)c1)OCCCCCNCc1c[nH]c2ccccc12,57%
2,O=C(NCCCCCCNCc1ccccc1)c1cc(Cl)nc(Cl)c1,73%
3,COc1ccccc1CNCCCCCOC(=O)Nc1cc(Cl)nc(Cl)c1,49%
4,O=C(NCCCCCCNCc1ccc2ccccc2c1)c1cc(Cl)nc(Cl)c1,46%
5,COc1ccccc1CNCCCCCCNC(=O)c1cc(Cl)nc(Cl)c1,54%
6,O=C(Nc1ccncc1Br)OCCCCCNCc1ccccc1,57%
7,O=C(NCCCCCCNCc1c[nH]c2ccccc12)c1cc(Cl)nc(Cl)c1,64%
8,O=C(Nc1cc(Cl)nc(Cl)c1)OCCCCCNCc1ccc(Oc2ccccc2)cc1,60%
9,O=C(NCCCCCCNCc1ccc(Oc2ccccc2)cc1)c1cc(Cl)nc(Cl)c1,18%

# Reference: ChEMBL document CHEMBL4130500, “New pyridine derivatives as inhibitors of acetylcholinesterase and amyloid aggregation” (Eur J Med Chem, 2017)
